The test has as its target T1, ATM3 (Arabidopsis thaliana, UniProt Q9LVM1).
T1 construct: gene ABCB25; inside-out membrane vesicles or Ni-NTA purified in detergent; half-transporter that dimerizes
Description: ATPase activity, malachite green Pi release. Format: biochemical. Conditions: 5 mM Na-ATP, 5 mM MgCl2, 0.1 M HEPES-KOH pH 7.0, 30 °C.

The text below walks through data of PMC4156053, “A Conserved Mitochondrial ATP-binding Cassette Transporter Exports Glutathione Polysulfide for Cytosolic Metal Cofactor Assembly” (The Journal of Biological Chemistry, 2014).

T1 sequence (Q9LVM1 61-728): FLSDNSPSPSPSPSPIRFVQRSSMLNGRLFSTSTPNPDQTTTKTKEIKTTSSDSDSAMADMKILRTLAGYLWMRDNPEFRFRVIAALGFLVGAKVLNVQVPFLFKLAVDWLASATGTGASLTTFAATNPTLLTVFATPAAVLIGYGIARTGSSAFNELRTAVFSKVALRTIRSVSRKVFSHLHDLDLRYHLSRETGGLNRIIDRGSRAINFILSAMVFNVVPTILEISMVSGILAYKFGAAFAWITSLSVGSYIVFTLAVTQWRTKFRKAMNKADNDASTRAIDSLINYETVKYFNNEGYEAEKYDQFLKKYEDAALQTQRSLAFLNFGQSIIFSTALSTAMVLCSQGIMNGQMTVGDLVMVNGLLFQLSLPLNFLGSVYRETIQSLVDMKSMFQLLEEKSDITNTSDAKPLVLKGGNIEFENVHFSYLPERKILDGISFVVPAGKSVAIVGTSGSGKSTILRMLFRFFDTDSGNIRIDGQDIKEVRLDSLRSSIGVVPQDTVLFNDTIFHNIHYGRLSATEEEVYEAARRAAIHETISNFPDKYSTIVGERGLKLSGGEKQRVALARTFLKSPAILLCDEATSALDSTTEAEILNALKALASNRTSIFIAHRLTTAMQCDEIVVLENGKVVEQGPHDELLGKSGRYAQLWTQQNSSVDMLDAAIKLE

As for `Nc1ncnc2c1ncn2[C@@H]1O[C@H](COP(=O)(O)OP(=O)(O)OP(=O)(O)O)[C@@H](O)[C@H]1O` [ATP], the “ATPase activity, malachite green Pi release” value is “retained their ATPase activity in detergent solution”.
